Results published in patent US20260137697A1, “THIAZOLO[5,4-D]PYRIMIDINE COMPOUNDS, COMPOSITIONS COMPRISING THEM AND USES THEREOF” (University de Montreal, priority 2022, published 2026).
Where two headings read alike, the source gives them in different places.

What was measured:
Type in all cases: cell-based, human
pERK, Calu6 cells = experiment: Phospho-ERK inhibition, AlphaLISA p-ERK 1/2, Calu-6; conditions: Table D-2; for IC50: Calu6 (KRAS Q61K); for pERK value in parentheses, % inhibition (Ymin): Calu6, lowest point of IC50 curve
Procedure: (§1) All cancer cell lines (A375, A101D, A2058, RKO, HT29 SK-MEL 30, IPC298, HepG2, HCT-116, Lovo, SW620, SW480, NCI-H358, NCI-H2122, Calu-6, NCIH2087, NCIH1755, NCIH1666 and Mewo) were obtained from ATCC and cultured in RPM1-1640 medium (Gibco) supplemented with 5% heat inactivated fetal bovine serum (FBS, Wisent) at 37° C. under 5% CO2. Cells were maintained in T175 flasks (Greiner). They were passaged by removing the culture medium, washing once in 10 mL of room temperature Phosphate Buffered Saline (PBS; Wisent) and incubating at 37° C. with 2 mL of 0.05% Trypsin (Thermo-Fisher). Trypsin was then inactivated by adding complete growth medium and the cells were then replated in a T175 culture dish at the appropriate dilution. All cell lines were routinely tested for mycoplasma contamination. Tissue type and mutational status of each cell line can be found in Table B.
(§2) (c) Measurement of Phospho-ERK Inhibition in Cultivated Human Cancer Cell Lines by the AlphaLISA® SureFire® Ultra™ p-ERK 1/2 (Thr2O2/Tyr204)
(§3) AlphaLISA® SureFire® Ultra™ p-ERK 1/2 (Thr202/Tyr204) analysis was conducted on cells plated in 100 μL of complete RPMI-1640 growth medium in 96-well flat-bottomed transparent dishes (Costar) at a density indicated in Table C. Cells were maintained overnight at 37° C. under 5% CO2 before treatment with compounds' dilution series for one hour. The cell density in cells/cm^2 corresponds to cell number divided by the area of one well of a 96-well plate (0.143 cm^2).
(§4) In a dilution series 100 μL/well of test substance dilution prepared in complete RPMI-1640 growth media was added to the cells. The dilution series is selected so that ten concentrations cover a range from 10 μM to 0.33 nM. If necessary, the initial concentration of 10 μM is increased to 100 μM or lowered to 1 μM (as in the case of A375 and H1666 cells, which are generally more sensitive to the compounds) and further dilution is carried out accordingly. The final concentration of DMSO in the assay is set at 0.5%.
(§5) After treatment, media was removed, and cells were lysed in 50 μL of 1× AlphaScreen Ultra Lysis Buffer (Perkin Elmer). The AlphaLISA® SureFire® Ultra™ p-ERK 1/2 (Thr202/Tyr204) (PerkinElmer) reactions were performed with 5 μL of cell lysate according to the manufacturer's specifications in 384-well proxyplates (Perkin Elmer) followed by overnight incubation of the reactions at room temperature in a humidified chamber. After completion of the reactions, the signals were recorded on an EnVision plate reader (Perkin Elmer) using built in AlphaLISA® settings.
(§6) The effect of each compound dilution on the pERK signal was expressed in % inhibition and calculated as follows. An internal 100% inhibition control (1 μM trametinib, cat. No. HY-10999; MedChem Express; CAS No. 871700-17-3) was included in each plate and used as a measure of pERK background. First, the value obtained for trametinib was subtracted from each data point. The average of DMSO (vehicle) controls (set as 0% inhibition) was established and used to calculate % inhibition:
(§7) The ability of each compound to inhibit pERK signal was expressed as an IC50 value obtained by plotting the inhibition values for each data point of a dilution series and fitting the obtained curves using a log(agonist) versus response—variable slope (four parameters) function using GraphPadPrism (V7.0) or Dotmatics Screening Ultra platform.
(§8) When present, paradoxical pERK induction is inferred from the negative % inhibition values observed in the pERK IC50 curves of a compound.

pERK, NCIH1755 cells = experiment: Phospho-ERK inhibition, AlphaLISA p-ERK 1/2, NCIH1755; conditions: Table D-2; for IC50: NCIH1755 (BRAF G469A); for pERK value in parentheses, % inhibition (Ymin): NCIH1755, lowest point of IC50 curve
Procedure: as §1, §2, §3, §4, §5, §6, §7, §8

HCT116 cells = experiment: Proliferation inhibition, CellTiter-Glo, HCT116; conditions: Table D-1, HCT116 (KRAS G13D), 3 days, read-out: Prolif. (proliferation EC50)
Procedure: as §1
CellTiter-Glo® viability analysis was conducted on cells plated in 100 μL of complete RPMI-1640 growth medium in 96-well flat-bottomed white opaque plates (Greiner or Croning) at a density indicated in Table E (for each CCL, number of cells plated per well of a 96-well plate to perform the CellTiter-Glo® cell viability assay). The cell density in cells/cm^2 would correspond to cell number divided by the area of one well of a 96-well plate (0.32 cm^2). […]
After 3 days of incubation, the growth media were removed by aspiration and 60 μL of diluted CellTiter-Glo® reagent (10 μL CellTiter-Glo® reagent+50 μL of PBS) was added to each well. […] Luminescence signals were then acquired on a Synergy Neo2 plate reader (Biotek).
The effect of each compound dilution on the proliferation of cancer cell lines was expressed in % inhibition and calculated as follows. […]
as §7, with “proliferation” for “pERK signal”, “a EC50” for “an IC50”, “effect” for “inhibition”

| IC50 (pERK, Calu6 cells) [nM] | IC50 (pERK, NCIH1755 cells) [nM] | EC50 (HCT116 cells) [nM] | IC50 (pERK, Calu6 cells; Homo sapiens, Calu-6) [nM] | IC50 (pERK, NCIH1755 cells; Homo sapiens, NCI-H1755) [nM] | EC50 (HCT116 cells; Homo sapiens, HCT-116, 72 h) [nM] | Compound | pERK value in parentheses, % inhibition (Ymin) (pERK, Calu6 cells) | pERK value in parentheses, % inhibition (Ymin) (pERK, NCIH1755 cells) |
| --- | --- | --- | --- | --- | --- | --- | --- | --- |
| < 30 | < 30 | < 300 |  |  |  | Cc1c(F)cccc1S(=O)(=O)Nc1ccc(F)c(Nc2ncnc3sc(-n4cc(C(=O)N5C6CCC5CN(C)C6)c5ccccc54)nc23)c1F [Example 44] | (−12) % | (−9) % |
| 30 to 300 | < 30 | < 300 |  |  |  | N#CC1(c2cccc3c2ncn3-c2nc3c(Nc4c(F)ccc(NS(=O)(=O)c5cccc(Cl)c5Cl)c4F)ncnc3s2)CC1 [Example 122] | (−8) % | (11) % |
|  |  |  | 30 to 300 | 30 to 300 | 300 to 3000 | Cc1ccc2c(Nc3cccc(Cl)c3F)nccc2c1NC(=O)c1csc2c(N)ncnc12 [Belvarafenib, reference compound] | (−39) % | (−79) % |
